Experimental findings from US20240307283A1, “COMPOSITIONS AND METHODS FOR DECREASING PIGMENTATION” (The General Hospital Corporation, priority 2021, published 2024) are described below.

Peptide text beside a SMILES is read from it. * marks the point of attachment. Cbz = O=C(OCc1ccccc1)*

The subject of one series is NNT. Description: Immunoblot of NNT after redox modulators. In kind it is cell-based, human. The following applies: UACC257, NAC 5 mM, MitoTEMPO 20 μM, H2O2 100 μM, daily for 72 hours. The procedure: Immunoblotting: Whole-cell protein lysates were prepared using RIPA lysis buffer (Sigma-Aldrich, #R0278) supplemented with Protease and Phosphatase Inhibitor (ThermoFisher Scientific, #P178445). Protein concentrations were quantified using the Pierce BCA protein assay (ThermoFisher Scientific, #23225). Immunoblotting was performed by standard techniques using 4-15% Criterion TGX Precast Midi Protein gels (Bio-Rad Laboratories, #5671084) and transferring to 0.2 μm nitrocellulose membranes (Bio-Rad Laboratories, #1620112). Membranes were blocked with 5% non-fat milk (Boston BioProducts, #P-1400) in PBS containing 0.1% […] and incubated with one of the following primary antibodies at the indicated dilution (antibody sources are in the Key Resources Table): 1:20 dilution of anti-MITF monoclonal antibody CS, 1:1,000 dilution of anti-Tyrosinase clone T311, 1:1,000 dilution of anti-Mitofusin-2 antibody [6A8], 1:500 dilution of TRP2/DCT antibody, 1:1,000 dilution of anti-NNT antibody [8B4BB10], 1:1,000 dilution of anti-IDH1 ([…]) antibody, 1:1,000 dilution of p53 antibody [PAb 240], 1:1,000 dilution of TYRP1 antibody [EPR21960], 1:1,000 dilution of mouse monoclonal antibody Pmel17 (E-7), or 1:1,000 dilution of LC3B (D11) rabbit monoclonal antibody. Incubation with the appropriate secondary antibody followed, either a 1:5,000 dilution of donkey anti-Rabbit IgG-HRP or a 1:3,000 dilution of Amersham ECL mouse IgG, HRP. To verify equal loading of samples, membranes were re-probed with a 1:20,000 dilution of monoclonal anti-β-actin-peroxidase (Sigma Aldrich, #A3854). Protein bands were visualized using Western Lightning Plus ECL (PerkinElmer, #NEL105001EA) and quantified using ImageJ software (NIH).
On the technique in general: In western blotting, separated proteins are transferred to a membrane and probed.

For another series, the system named is human skin explants. Description: Depigmentation of human skin explants by NNT activators. The following applies: after 36 hours, DMSO-based carrier, FIGS. 13A-B. Type of series: cell-based. The procedure:
Skin samples considered surgical waste were obtained de-identified from healthy donors (IRB #2013P000093) undergoing reconstructive surgery, according to institutional regulations. Full thickness human abdominal skin explants were cultured in petri dishes with a solid phase and liquid phase phenol red free DMEM medium containing 20% penicillin/streptomycin/glutamine, 5% fungizone (Gibco), and 10% fetal bovine serum. Compounds were applied strictly on top of the explants, making sure no drip occurred into the underlying media. For UV irradiation experiments, a UV lamp (UV Products) was used at 1000 mJ/cm^2 UVB.
The ability of ASS, Usnic acid, 4-hexylresorcinol, candesartan, Nigericin, elaidylphosphocholine, hexitidine, naproxol, and Ginkgolic acid to depigment skin was tested in human skin explants. A DMSO-based carrier solution was used. DMSO was used as a negative control. […]

A further series relates to human skin. Briefly: Topical treatment of a human subject (skin type 2). Type of series: in vivo. The following applies: 100 uM in DMSO, 15 days, twice per day. The procedure:
A human subject with skin type 2 was treated with Hexetidine 100 uM in DMSO for 15 days, twice per day, individual.

For series [1], the system named is primary human melanocytes. Description: Melanosome maturation by transmission electron microscopy. In kind it is cell-based. The following applies: NAC 5 mM or MitoTEMPO 20 μM; for siNNT-induced melanosome maturation: daily for 96 h; for total number of melanosomes per um^2: daily for 96 hours. On the procedure: Transmission electron microscopy: Cultured primary human melanocytes were grown in Medium 254 in 6-well transwell plates. Ninety-six h post siRNA or overexpression treatment, the cells were fixed with a modified Kamovsky's fixative (2% paraformaldehyde/2.5% glutaraldehyde in 0.1 M sodium cacodylate buffer, pH 7.4) for at least 2 h on a gentle rotator, followed by rinsing several times with 0.1 M cacodylate buffer. Then, the cells were treated with 1% osmium tetroxide/0.1 M cacodylate buffer for 1 h, rinsed thoroughly in 0.1 M cacodylate buffer, scraped, and the cell suspensions were transferred into 15 ml centrifuge tubes and centrifuged (3,000 rpm) for 15 min at 4° C.). Pelleted material was embedded in 2% agarose, dehydrated through an ethanol gradient (series of solutions from 30% to 100% ethanol), dehydrated briefly in 100% propylene oxide, then allowed to infiltrate overnight on a gentle rotator in a 1:1 mix of propylene oxide and Eponate resin (Ted Pella, Inc., kit with DMP30, #18010′). The following day, specimens were transferred into fresh 100% Eponate resin for 2-3 hours, then embedded in flat molds in 100% fresh Eponate resin, and embeddings were allowed to polymerize for 24-48 h at 60° C. Thin (70 nm) sections were cut using a Leica EM UC7 ultramicrotome, collected onto formvar-coated grids, stained with 2% uranyl acetate and Reynold's lead citrate, and examined in a JEOL JEM 1011 transmission electron microscope at 80 kV. Images were collected using an AMT digital imaging system with proprietary image capture software (Advanced Microscopy Techniques, Danvers, MA). Measurements of distances between melanosomes and mitochondria were quantified in FIJI (ImageJ) (Schindelin et al., 2012) by applying a customized macro to TEM micrographs. Melanosomes (N=˜50) were randomly selected for each condition within the whole image data set. Thirty Euclidean distances from the melanosome surface to the closest mitochondria surface were measured in nm. From these 30 single measurements the mean was calculated to give a final single mean value per melanosome-mitochondria event. A total of ˜50 events (N) were quantified per condition. Data were plotted and statistically analyzed using Prism 8 (Version 8.4.3). […] Cell area (μm^2), number of melanosome-mitochondria contacts, and number of mitochondria were quantified in FIJI (ImageJ) using polygon and multi-point selection tools. Melanosome identification and quantification were performed with images at 40,000× magnification or higher. […] All identifiable melanosomes in 4 cells per condition were quantified and classified, and the proportions of each stage were normalized to cell cytosolic area (determined by ImageJ).

A further series concerns UACC257 cells. Briefly: siNNT-induced pigmentation with antioxidants, melanin content. Type of series: cell-based, human. The following applies: NAC 5 mM, MitoTEMPO 20 μM daily for 72 h; NADPH 0.1 M. On the procedure:
sIRNA transfection: A single treatment of 10 nmol/L of siRNA was delivered to a 60% confluent culture by transfection with Lipofectamine RNAiMAX (Life Technologies, #13778150) according to the manufacturer's recommendations. After 48-72 h of transfection, total RNA or protein was harvested. Melanin quantification: Equal numbers of cells were plated in 6-well plates. The cells were then harvested 72-96 hours post siRNA or NNT inhibitors compounds, as indicated in the legends, pelleted, washed in PBS and counted. 10^6 cells were used for measurement of protein concentration with the Pierce BCA protein assay (Thermo Fisher Scientific, #23225) and 10^6 cells were resuspended in 60 μl of 1 N NaOH solution and incubated at 60° C. for 2 h or until the melanin was completely dissolved. After cooling down to room temperature, samples were centrifuged at 500×g for 10 min and the supernatants were loaded onto a 96-well plate. The melanin content was determined by measuring the absorbance at 405 nm on an Envision plate reader, compared with a melanin standard (0 to 50 μg/ml; Sigma Aldrich, #M8631). Melanin content was expressed as micrograms per milligram of protein.

For a further series, the system named is tyrosinase. Briefly: Cycloheximide chase assay of tyrosinase protein stability. Type of series: cell-based, human. The following applies: then CHX; for siNNT-increased tyrosinase protein stability: UACC257, 5 mM NAC, 0.1 mM NADPH, 20 μM MitoTEMPO for 48 h. On the procedure:
Cycloheximide chase assay: 72 h after siRNA transfection (sicontrol or siNNT), UACC257 melanoma cells were treated with a protein synthesis inhibitor, cyclohexamide (CHX, Sigma Aldrich #C7698, 50 μg/ml), for the indicated times and then immediately subjected to immunoblotting for tyrosinase protein expression. The expression of tyrosinase was quantified using ImageJ software based on band intensities and normalized to the intensities of the corresponding β-actin bands. The normalized tyrosinase expression was then defined as relative tyrosinase expression by setting the mean values at t=0 in each experimental group to 1.0. […] The siRNA-transfected cells were cultured for an additional 48 h in the presence of these agents and then examined by the CHX chase assay as described above. pLJM-1-EGFP or pLJM1-NNT/FLAG was introduced into UACC257 cells using Lipofectamine 3000, 48 after transfection, the transfection medium was replaced with fresh medium containing DMSO or 10 μM MG132 (Sigma Aldrich #M8699) and pre-incubated for 6 h. Then. CHX was added to assess tyrosinase protein stability as described above.

With `OO` [H2O2, Hydrogen peroxide], the NNT protein levels entry in the series on NNT is listed as “did not impact NNT protein levels”.
With `CCCCC(CC)CN1CN(CC(CC)CCCC)CC(C)(N)C1` (centres unmarked) [Hexetidine, 1,3-bis(2-ethylhexyl)-5-methyl-1,3-diazinan-5-amine], the “ability to depigment skin” value in the series with human skin explants is “depigmenting effects”. Further, in the series with human skin, the “depigmentation of human skin” value is given as “successful depigmentation” and the irritation result is given as “without significant irritation”.
In the case of `CC1(C)CC(NC(=O)C[P+](c2ccccc2)(c2ccccc2)c2ccccc2)CC(C)(C)N1[O]` [MitoTEMPO], in series [1], the siNNT-induced melanosome maturation result is recorded as “prevented the siNNT-induced phenotype” and the “total number of melanosomes per um^2” value is listed as “not altered”. In the series on UACC257 cells, the “siNNT-mediated increase in pigmentation” value is on record as “inhibited the siNNT-mediated increase in pigmentation”. In the series on tyrosinase, the “siNNT-increased tyrosinase protein stability” value was “prevented”. Further, the NNT protein levels entry in the series on NNT is recorded as “did not impact NNT protein levels”.
For `NC(=O)C1=CN([C@@H]2O[C@H](COP(=O)(O)OP(=O)(O)OC[C@H]3O[C@@H](n4cnc5c(N)ncnc54)[C@H](OP(=O)(O)O)[C@@H]3O)[C@@H](O)[C@H]2O)C=CC1` [NADPH, β-nicontinamide adenine dinucleotide 2′-phosphate], the “siNNT-mediated increase in pigmentation” value in the series with UACC257 cells was “inhibited the siNNT-mediated increase in pigmentation”. Also, in the series with tyrosinase, the “siNNT-increased tyrosinase protein stability” value is given as “prevented”.
`CC(C)C[C@@H](C=O)NC(=O)[C@H](CC(C)C)NC(=O)[C@H](CC(C)C)NC(=O)OCc1ccccc1` [MG132, carbobenzoxy-L-leucyl-L-leucyl-L-leucinal] (Cbz-Leu-Leu-Leu-aldehyde): in the series with tyrosinase (UACC257, 10 μM for 6 h), the “tyrosinase protein stability in NNT-overexpressing cells” value is “prevented an NNT overexpression-induced decrease in Tyrosinase protein stability”.
As for `CC(=O)N[C@@H](CS)C(=O)O` [NAC, N-acetylcysteine], in series [1], the siNNT-induced melanosome maturation result was “prevented the siNNT-induced phenotype” and the “total number of melanosomes per um^2” value is recorded as “not altered”. For the same molecule, the “siNNT-mediated increase in pigmentation” value in the series with UACC257 cells is given as “inhibited the siNNT-mediated increase in pigmentation”. For the same molecule, the “siNNT-increased tyrosinase protein stability” value with tyrosinase is “prevented”. Also, in the series with NNT, the NNT protein levels entry was “did not impact NNT protein levels”.
